Among the data in publication PMC9821907, “Synthesis and Antiprotozoal Activity of Azabicyclo-Nonane Pyrimidine Hybrids” (Molecules, 2022) are IC50 values, retold here.

By IC50 is commonly meant the concentration needed to halve the response being measured.

Data set [1] relates to P. falciparum K1. Also on record: method as in PMID 25746816. Conditions: K1 strain, resistant to chloroquine, sulfadoxine and pyrimethamine; ref [12]; cited from earlier work.
Data set [2] relates to T. brucei rhodesiense STIB900. Also on record: method as in PMID 25746816. Conditions: ref [12]; cited from earlier work.
Data set [3] deals with L-6 cells. The following applies: cited from earlier work.
In data set [4] the test system is P. falciparum NF54. The following applies: NF54 strain, sensitive to chloroquine and pyrimethamine, cited from earlier work.
Data set [5] deals with P. falciparum NF54. Nature of the data set: In vitro microplate 3H-hypoxanthine incorporation assay against P. falciparum NF54. The class given is cell-based. The following applies: Plasmodium falciparum; NF54 strain, sensitive to chloroquine and pyrimethamine; average of four determinations; read-out: P. falciparum NF54 IC50. Here is the method:
(§1) Compounds were tested for their activities against Plasmodium falciparum NF54 (sensitive to chloroquine) and Trypanosoma brucei rhodesiense STIB900, via serial dilution assays. Furthermore, selected compounds were tested against the K1 strain of Plasmodium falciparum (resistant against chloroquine, sulfadoxine and pyrimethamine). Their cytotoxicity was determined with rat skeletal myoblasts (L-6 cells).
(§2) In vitro activity against erythrocytic stages of P. falciparum was determined using a ^3H-hypoxanthine incorporation assay using the drug sensitive NF54 strain [27] or the chloroquine- and pyrimethamine-resistant K1 strain [28]. Compounds were dissolved in DMSO at 10 mg/mL and further diluted in medium before being added to parasite cultures incubated in RPMI 1640 medium without hypoxanthine, supplemented with HEPES (5.94 g/L), NaHCO3 (2.1 g/L), neomycin (100 U/mL), Albumax® (5 g/L) and washed human red cells A+ at 2.5% haematocrit (0.3% parasitaemia). Serial drug dilutions of eleven 3-fold dilution steps covering a range from 100 to 0.002 μg/mL were prepared. The 96-well plates were incubated in a humidified atmosphere at 37 °C; 4% CO2, 3% O2, 93% N2. After 48 h, 0.05 mL of ^3H-hypoxanthine (= 0.5 μCi) was added to each well of the plate. The plates were incubated for a further 24 h under the same conditions. The plates were then harvested with a Betaplate™ cell harvester (Wallac, Zurich, Switzerland), and the red blood cells transferred onto a glass fibre filter then washed with distilled water. The dried filters were inserted into a plastic foil with 10 mL of scintillation fluid, and counted in a Betaplate™ liquid scintillation counter (Wallac, Zurich, Switzerland). IC50 values were calculated from sigmoidal inhibition curves by linear regression using Microsoft Excel. Chloroquine (Sigma C6628) was used as control.

Data set [6] has as its system P. falciparum K1. Nature of the data set: In vitro microplate 3H-hypoxanthine incorporation assay against P. falciparum K1. It counts as cell-based, Plasmodium falciparum. The following applies: Plasmodium falciparum, K1, K1 strain, resistant to chloroquine, sulfadoxine and pyrimethamine; average of four determinations; read-out: P. falciparum K1 IC50. As for the experimental part:
as §1, §2

Data set [7] concerns T. brucei rhodesiense STIB900. Nature of the data set: In vitro microplate resazurin assay against T. brucei rhodesiense. The class given is cell-based. Conditions: Trypanosoma brucei; bloodstream forms; average of four determinations; read-out: T. brucei rhodesiense STIB900 IC50. Here is the method:
as §1
Minimum essential medium (50 µL) supplemented with 25 mM HEPES, 1g/L additional glucose, 1% MEM non-essential amino acids (100×), 0.2 mM 2-mercaptoethanol, 1mM Na-pyruvate and 15% heat-inactivated horse serum was added to each well of a 96-well microtiter plate. Serial drug dilutions of eleven 3-fold dilution steps covering a range from 100 to 0.002 μg/mL were prepared. Then 4 × 10^3 bloodstream forms of T. b. rhodesiense STIB 900 in 50 µL was added to each well and the plate incubated at 37 °C under a 5 % CO2 atmosphere for 70 h. Next, 10 µL resazurin solution (resazurin, 12.5 mg in 100 mL double-distilled water) was added to each well and incubation continued for a further 2–4 h. Then the plates were read with a Spectramax Gemini XS microplate fluorometer (Molecular Devices Cooperation, Sunnyvale, CA, USA) using an excitation wave length of 536 nm and an emission wave length of 588 nm. Data were analyzed with the graphic programme Softmax Pro (Molecular Devices Cooperation, Sunnyvale, CA, USA), which calculated IC50 values by linear regression and 4-parameter logistic regression from the sigmoidal dose inhibition curves. Melarsoprol (Arsobal Sanofi-Aventis, received from WHO) was used as control.

A further data set is described as follows: in vitro. The following applies: rat. Here is the method:
as §1
(§3) Assays were performed in 96-well microtiter plates, each well containing 0.1 mL of RPMI 1640 medium supplemented with 1% L-glutamine (200 mM) and 10% fetal bovine serum, and 4000 L-6 cells (a primary cell line derived from rat skeletal myoblasts, ATCC CRL-1458™). Serial drug dilutions of eleven 3-fold dilution steps covering a range from 100 to 0.002 μg/mL were prepared. After 70 h of incubation the plates were inspected under an inverted microscope to assure growth of the controls and sterile conditions. Then, 0.01 mL resazurin solution (resazurin, 12.5 mg in 100 mL double-distilled water) was added to each well and the plates incubated for another 2 h. The plates were read with a Spectramax Gemini XS microplate fluorometer (Molecular Devices Cooperation, Sunnyvale, CA, USA) using an excitation wave length of 536 nm and an emission wave length of 588 nm. The IC50 values were calculated by linear regression from the sigmoidal dose inhibition curves using SoftmaxPro software (Molecular Devices Cooperation, Sunnyvale, CA, USA). Podophyllotoxin (Sigma P4405) was used as control.

Data set [8] deals with L-6 cells. The data set is described as follows: In vitro cytotoxicity with L-6 cells. Conditions: read-out: Cytotoxicity L-6 Cells IC50; rat skeletal myoblasts; average of four determinations. As for the experimental part: as §1, §3

Read-outs that look alike come from different tables or passages of the source.

For “1-(piperidin-1-yl)-3-azabicyclononane [Compound 3]”, the concentration for half-maximal inhibition (IC50) in the data set with P. falciparum K1 [1] was 750 nM; in data set [2], 2020 nM; in the data set with L-6 cells [3], 122000 nM.
“1-(pyrrolidin-1-yl)-3-azabicyclononane [Compound 4]”: the 50% inhibitory concentration (IC50) in the data set on P. falciparum NF54 [4] (ref [13]) was 72 nM; in the data set with P. falciparum K1 [1] it was 95 nM; in data set [2], 1000 nM; in the data set on L-6 cells [3] (read-out: Cytotoxicity L-6 Cells IC50, rat skeletal myoblasts, ref [12]) it was 72900 nM.
“5-(piperidin-1-yl)-2-azabicyclo-nonane [Compound 1]”: the IC50 was 640 nM in the data set with P. falciparum K1 [1], 6570 nM in data set [2] and 89700 nM in the data set with L-6 cells [3].
Take “5-(pyrrolidin-1-yl)-2-azabicyclononane [Compound 2]”: the IC50 with P. falciparum K1 [1] is 560 nM; in [2], 1160 nM; in the data set with L-6 cells [3], 120000 nM.
Take `Cc1cc(N2CCC3(N4CCCC4)C[C@H](c4ccccc4)C2[C@@H](c2ccccc2)C3)nc(N2CCCC2)n1` (racemic) [Compound 18, rac-(7R,8R)-2-[6-methyl-2-(pyrrolidin-1-yl)pyrimidin-4-yl]-7,8-diphenyl-5-(pyrrolidin-1-yl)-2-azabicyclo[3.2.2]nonane]: the figures for the IC50 (in the data set on P. falciparum NF54 [5]; with P. falciparum K1 [6]; in data set [7]) were 136 ± 16 nM, 59 ± 2 nM and 95 ± 32 nM, respectively. Half-maximal inhibition in the data set “in vitro” (IC50 at 72 h) required 15000 ± 483 nM.
The corresponding values for `Cc1cc(N2CC3C(c4ccccc4)CC(N4CCCCC4)(CC3c3ccccc3)C2)nc(N2CCCC2)n1` (racemic) [Compound 19, rac-(7R,8R)-3-[6-methyl-2-(pyrrolidin-1-yl)pyrimidin-4-yl]-6,9-diphenyl-1-(piperidin-1-yl)-3-azabicyclo[3.2.2]nonane] are 5290 ± 134 nM, 694 ± 268 nM, 3160 ± 1060 nM and 58400 ± 22900 nM.
For the molecule `Cc1cc(N2CC3C(c4ccccc4)CC(N4CCCC4)(CC3c3ccccc3)C2)nc(N2CCCC2)n1` (racemic) [Compound 20, rac-(7R,8R)-3-[6-methyl-2-(pyrrolidin-1-yl)pyrimidin-4-yl]-6,9-diphenyl-1-(pyrrolidin-1-yl)-3-azabicyclo[3.2.2]nonane], the IC50 came to 87 ± 59 nM with P. falciparum NF54 [5], 87 ± 47 nM in the data set with P. falciparum K1 [6] and 764 ± 335 nM in data set [7]. For the same molecule, in the data set “in vitro”, half-maximal inhibition (IC50 at 72 h) was put at 4160 ± 39 nM.
For `Cc1cc(N2CC3C(c4ccccc4)CC(N4CCCCC4)(CC3c3ccccc3)C2)nc(N2CCCCC2)n1` (racemic) [Compound 23, rac-(7R,8R)-3-[6-methyl-2-(piperidin-1-yl)pyrimidin-4-yl]-6,9-diphenyl-1-(piperidin-1-yl)-3-azabicyclo[3.2.2]nonane], the IC50 with P. falciparum NF54 [5] stood at 607 ± 10 nM; with P. falciparum K1 [6] it was 570 ± 12 nM; in [7], 3380 ± 9 nM. For the same molecule, in the data set “in vitro”, the midpoint of inhibition, the IC50 at 72 h, lay at 16000 ± 1240 nM.
As for `COc1cc([C@@H]2c3cc4c(cc3[C@H](O)[C@H]3COC(=O)[C@H]23)OCO4)cc(OC)c1OC` [POD, podophyllotoxin, reference compound], the IC50 in the data set on L-6 cells [8] came out at 12 nM.
For the molecule `CCc1nc(N)nc(N)c1-c1ccc(Cl)cc1` [PYR, pyrimethamine, reference compound], the results for the IC50 in the data set with P. falciparum K1 [6] and with P. falciparum NF54 [4] (ref [24]) were 10000 nM and 17 nM, respectively.
